Laboratory results from ChEMBL document CHEMBL1201862, “PubChem BioAssay data set” (2004).
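Where inhibition never reached the appropriate level, the endpoint shown equals the highest concentration tested. Otherwise, values were interpolated linearly from a five-concentration, 48-hour dose response in 96-well plates. Here, GI50 denotes the concentration required for 50% inhibition of growth.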 Activity calls are given as the source filed them. Rule as the data show it: active = GI50 up to about 1.1 µM and inactive = higher.

Experiments:
Test in all cases: NCI tumour cell line growth inhibition, 48 h
T47D = test system: T47D
UACC-257 = test system: UACC-257
KM12 = test system: KM12
LOX IMVI = test system: LOX IMVI
HCT-15 = test system: HCT-15
OVCAR-5 = test system: OVCAR-5
MDA-N = test system: MDA-N
SK-MEL-5 = test system: SK-MEL-5
HOP-62 = test system: HOP-62
OVCAR-8 = test system: OVCAR-8
EKVX = test system: EKVX
ACHN = test system: ACHN
SF-268 = test system: SF-268
NCI/ADR-RES = test system: NCI/ADR-RES
SN12C = test system: SN12C
SK-MEL-28 = test system: SK-MEL-28
UO-31 = test system: UO-31
NCI-H460 = test system: NCI-H460
HOP-92 = test system: HOP-92
M14 = test system: M14

What does the source list for `C/N=C(\Nc1cccc(C(F)(F)F)c1)SCc1ccc(N=C=S)cc1`?
GI50 (T47D): 13.8 µM (inactive); GI50 (UACC-257): 14.3 µM (inactive); GI50 (KM12): 15.4 µM (inactive); GI50 (LOX IMVI): 4.66 µM (inactive); GI50 (HCT-15): 7.14 µM; GI50 (OVCAR-5): 16.5 µM (inactive); GI50 (MDA-N): 14.8 µM (inactive); GI50 (SK-MEL-5): 16.3 µM (inactive); GI50 (HOP-62): 17.5 µM (inactive); GI50 (OVCAR-8): 19.6 µM (inactive); GI50 (EKVX): 20.2 µM (inactive); GI50 (ACHN): 15.2 µM (inactive); GI50 (SF-268): 31.2 µM (inactive); GI50 (NCI/ADR-RES): 22.1 µM (inactive); GI50 (SN12C): 13.8 µM (inactive); GI50 (SK-MEL-28): 21 µM (inactive); GI50 (UO-31): 15.1 µM (inactive); GI50 (NCI-H460): 12.9 µM (inactive); GI50 (HOP-92): 14.7 µM (inactive)

Which GI50 (T47D) does the source give for `CCOC(=O)/C(=C\c1ccc(F)cc1)C(C)=O` here?
The GI50 was 21.8 µM (inactive).

And the GI50 (UACC-257)?
The GI50 was 19.2 µM (inactive).

And the GI50 (KM12)?
The GI50 was 24.3 µM (inactive).

What about the GI50 (LOX IMVI) of the same molecule?
Its GI50 is 17.5 µM (inactive).

And the GI50 (HCT-15)?
The GI50 was 20.7 µM.

And the GI50 (M14)?
The GI50 was 22.9 µM (inactive).

What about the GI50 (OVCAR-5) of the same molecule?
The GI50 was 58.6 µM (inactive).

What about the GI50 (MDA-N) of the same molecule?
Its GI50 is 37.8 µM (inactive).

And the GI50 (SK-MEL-5)?
The GI50 was 24.4 µM (inactive).

What about the GI50 (HOP-62) of the same molecule?
The GI50 was 38.9 µM (inactive).

What about the GI50 (OVCAR-8) of the same molecule?
Its GI50 is 29.2 µM (inactive).

What about the GI50 (EKVX) of the same molecule?
The GI50 was 22.3 µM (inactive).

What about the GI50 (ACHN) of the same molecule?
The GI50 was 21.6 µM (inactive).

And the GI50 (SF-268)?
The GI50 was 29.1 µM (inactive).

What about the GI50 (NCI/ADR-RES) of the same molecule?
Its GI50 is 35.6 µM (inactive).

What about the GI50 (SN12C) of the same molecule?
Its GI50 is 63 µM (inactive).

What about the GI50 (UO-31) of the same molecule?
Its GI50 is 16.2 µM (inactive).

And the GI50 (NCI-H460)?
The GI50 was 32.5 µM (inactive).

And the GI50 (HOP-92)?
The GI50 was 15.1 µM (inactive).

What does the source list for `FC1CCN(C2(c3cccs3)CCCCC2)CC1`?
GI50 (T47D): > 100 µM (inactive); GI50 (UACC-257): 60.4 µM (inactive); GI50 (KM12): > 100 µM (inactive); GI50 (LOX IMVI): 96.6 µM (inactive); GI50 (HCT-15): > 100 µM; GI50 (M14): 77.1 µM (inactive); GI50 (OVCAR-5): > 100 µM (inactive); GI50 (MDA-N): > 100 µM (inactive); GI50 (SK-MEL-5): > 100 µM (inactive); GI50 (HOP-62): > 100 µM (inactive); GI50 (OVCAR-8): > 100 µM (inactive); GI50 (EKVX): > 100 µM (inactive); GI50 (ACHN): > 100 µM (inactive); GI50 (NCI/ADR-RES): > 100 µM (inactive); GI50 (SN12C): > 100 µM (inactive); GI50 (SK-MEL-28): > 100 µM (inactive); GI50 (UO-31): > 100 µM (inactive); GI50 (NCI-H460): > 100 µM (inactive); GI50 (HOP-92): 62.8 µM (inactive)

For `COc1c(-c2nc3ccc(N4CCN(C)CC4)nc3[nH]2)cc(OC)c2c1nc(CCl)n2C`, which GI50 (T47D) is on record?
Its GI50 is 16 µM (inactive).

What about the GI50 (UACC-257) of the same molecule?
The GI50 was 22.6 µM (inactive).

What about the GI50 (KM12) of the same molecule?
Its GI50 is 14.8 µM (inactive).

And the GI50 (LOX IMVI)?
Its GI50 is 10.8 µM (inactive).

And the GI50 (HCT-15)?
Its GI50 is 26.3 µM.

And the GI50 (M14)?
The GI50 was 16.9 µM (inactive).

What about the GI50 (OVCAR-5) of the same molecule?
The GI50 was 21.6 µM (inactive).

What about the GI50 (MDA-N) of the same molecule?
Its GI50 is 30.5 µM (inactive).

And the GI50 (HOP-62)?
Its GI50 is 21.4 µM (inactive).

What about the GI50 (OVCAR-8) of the same molecule?
The GI50 was 20.1 µM (inactive).

What about the GI50 (EKVX) of the same molecule?
Its GI50 is 19.4 µM (inactive).

What about the GI50 (ACHN) of the same molecule?
The GI50 was 13.7 µM (inactive).

What about the GI50 (SF-268) of the same molecule?
Its GI50 is 22.4 µM (inactive).

What about the GI50 (NCI/ADR-RES) of the same molecule?
The GI50 was 56.9 µM (inactive).

And the GI50 (SN12C)?
Its GI50 is 20.9 µM (inactive).

And the GI50 (SK-MEL-28)?
The GI50 was 26.9 µM (inactive).

What about the GI50 (UO-31) of the same molecule?
Its GI50 is 16.5 µM (inactive).

And the GI50 (NCI-H460)?
Its GI50 is 20.6 µM (inactive).

And the GI50 (HOP-92)?
The GI50 was 22.8 µM (inactive).
